Measurements as given in PubChem BioAssay AID977613 (Broad Institute, 2014).
The source made the active and inactive calls. The rule behind the calls is not given here.

Test system: Broad 7084-01 inhibitor HTS, set 2
Test: inhibitors in Broad screen 7084-01, set 2 (AID 977613);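 note: host cells are infected with parasite promastigotes that become internalized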

For `CN1C(=O)c2cc(NC(=O)Cc3cccs3)ccc2OC[C@H]2O[C@H](CC(=O)N[C@@H]3CCN(Cc4ccccc4)C3)CC[C@@H]21`, which active concentration is on record?
Its active concentration is > 10 µM (inactive).

Which active concentration does the source give for `COc1ccc(NC(=O)N2CCCCN3[C@H](C2)[C@@H](c2ccc(-c4ccccc4F)cc2)[C@@H]3CO)cc1` here?
The active concentration was > 10 µM (inactive).

Which active concentration does the source give for `O=C([C@@H]1[C@@H](CO)[C@@H]2Cn3c(cccc3=O)[C@H]1N2CC1CC1)N1CCc2ccccc2C1` here?
The active concentration was > 10 µM (inactive).

How did the active concentration turn out when `O=C(c1ccc2c(c1)OCO2)N1C[C@H]2[C@@H](c3ccccc31)[C@@H](CO)N2C(=O)CC1CC1` was run?
The active concentration was > 10 µM (inactive).

Which active concentration does the source give for `O=C(C[C@H]1CC[C@H]2[C@@H](COC[C@@H](O)CN2C(=O)c2ccc3c(c2)OCO3)O1)NC1CCC1` here?
Its active concentration is > 10 µM (inactive).

For `Cc1noc(C)c1NC(=O)N1C[C@@H](O)COC[C@@H]2O[C@H](CC(=O)NCC3CCCCC3)CC[C@H]21`, which active concentration is on record?
Its active concentration is > 10 µM (inactive).

Which active concentration does the source give for `CCCNC(=O)N1CC(=O)N2[C@H](CO)[C@@H](c3ccc(C#CCC4CCCC4)cc3)[C@H]2C1` here?
The active concentration was > 10 µM (inactive).

With `Cc1ccc(-c2ccccc2[C@@H]2[C@H](C#N)N(C(=O)c3cccc(F)c3)[C@H]2CO)cc1` as the compound, how does the active concentration read?
The active concentration was > 10 µM (inactive).

For `COc1ccc(-c2ccccc2[C@@H]2[C@@H](CO)N(C(=O)NC(C)C)[C@H]2C#N)cc1`, which active concentration is on record?
The active concentration was > 10 µM (inactive).

With `CN1[C@@H]2CN(C(=O)C3CCCCC3)c3ccccc3[C@@H]2[C@@H]1CO` as the compound, how does the active concentration read?
The active concentration was > 10 µM (inactive).

`C[C@H](NC(=O)[C@@H]1[C@@H](CO)[C@@H]2Cn3c(cccc3=O)[C@H]1N2CCC(F)(F)F)c1ccccc1` was tested. Which active concentration did it give?
Its active concentration is > 10 µM (inactive).

`CCCNC(=O)N1[C@H](C#N)[C@H](c2ccccc2C2=CCCCC2)[C@@H]1CO` was tested. Which active concentration did it give?
Its active concentration is > 10 µM (inactive).

With `O=C(Cc1ccncc1)N1CC(=O)N2[C@@H](CO)[C@H](c3ccc(Br)cc3)[C@@H]2C1` as the compound, how does the active concentration read?
Its active concentration is > 10 µM (inactive).

For `O=C(C[C@H]1CC[C@H]2[C@@H](COC[C@H](O)CN2CC2CCOCC2)O1)NCC1CCCCC1`, which active concentration is on record?
Its active concentration is > 10 µM (inactive).

Which active concentration does the source give for `CCCNC(=O)N1CC(=O)N2[C@H](C1)[C@@H](c1ccc(-c3ccc(F)cc3)cc1)[C@@H]2CO` here?
The active concentration was > 10 µM (inactive).

Which active concentration does the source give for `O=C(C1CCOCC1)N1CC(=O)N2[C@@H](CO)[C@@H](c3ccc(-c4cccnc4)cc3)[C@@H]2C1` here?
Its active concentration is > 10 µM (inactive).

With `O=C(C[C@@H]1CC[C@@H]2[C@H](COC[C@@H](O)CN2Cc2ccc3c(c2)OCO3)O1)Nc1ccccc1` as the compound, how does the active concentration read?
Its active concentration is > 10 µM (inactive).

`CCCNC(=O)N1[C@@H]2Cn3c(ccc(-c4ccccc4OC)c3=O)[C@H]1[C@@H](C(=O)NCC)[C@@H]2CO` was tested. Which active concentration did it give?
Its active concentration is > 10 µM (inactive).

Which active concentration does the source give for `O=C(C[C@@H]1CC[C@@H]2[C@H](COC[C@H](O)CN2S(=O)(=O)c2ccccc2)O1)N[C@H]1CCN(Cc2ccccc2)C1` here?
The active concentration was > 10 µM (inactive).

`O=C(C[C@@H]1CC[C@@H]2[C@H](COC[C@H](O)CN2CCC(F)(F)F)O1)NCC1CC1` was tested. Which active concentration did it give?
The active concentration was > 10 µM (inactive).

Which active concentration does the source give for `Cc1ccc(S(=O)(=O)N2CC[C@@H]3[C@H]2c2cc(C#Cc4ccc(F)cc4)ccc2N[C@@H]3CO)cc1` here?
Its active concentration is > 10 µM (inactive).

Which active concentration does the source give for `N#C[C@H]1[C@@H](c2ccccc2C2=CCCCC2)[C@H](CO)N1C(=O)C1CCOCC1` here?
Its active concentration is > 10 µM (inactive).

Which active concentration does the source give for `CN(C)CC#Cc1ccc([C@@H]2[C@@H](CO)N3C(=O)CN(C(=O)CN(C)C)C[C@H]23)cc1` here?
The active concentration was > 10 µM (inactive).

`O=C1CNC[C@@H]2[C@@H](c3ccc(-c4ccccc4F)cc3)[C@@H](CO)N12` was tested. Which active concentration did it give?
The active concentration was > 10 µM (inactive).

Which active concentration does the source give for `CCNC(=O)Nc1ccc2c(c1)C(=O)N(C)[C@H]1CC[C@@H](CC(=O)N[C@@H](C)c3ccccc3)O[C@H]1CO2` here?
Its active concentration is > 10 µM (inactive).

For `Cc1ccccc1-c1ccc([C@@H]2[C@@H](CO)N3C(=O)CN(S(C)(=O)=O)C[C@@H]23)cc1`, which active concentration is on record?
Its active concentration is > 10 µM (inactive).

For `CCC(=O)N1[C@@H](CO)[C@@H](c2ccccc2)C12CN(C(=O)c1ccc3c(c1)OCO3)C2`, which active concentration is on record?
Its active concentration is > 10 µM (inactive).

For `O=C(C[C@H]1CC[C@H]2[C@@H](COC[C@H](O)CN2S(=O)(=O)c2ccc(F)cc2)O1)NCC1CC1`, which active concentration is on record?
The active concentration was > 10 µM (inactive).

With `Cc1cccc(S(=O)(=O)N2C[C@H](O)COC[C@@H]3O[C@@H](CC(=O)Nc4ccccc4)CC[C@H]32)c1` as the compound, how does the active concentration read?
Its active concentration is > 10 µM (inactive).

How did the active concentration turn out when `O=C(C[C@H]1CC[C@@H]2[C@H](COC[C@@H](O)CN2S(=O)(=O)c2cccc(Cl)c2)O1)Nc1ccc(-c2ccccc2)cc1` was run?
Its active concentration is > 10 µM (inactive).

How did the active concentration turn out when `CCS(=O)(=O)N1CC2(C1)[C@H](c1ccccc1)[C@@H](CO)N2C(=O)c1ccccc1` was run?
The active concentration was > 10 µM (inactive).

For `N#C[C@H]1[C@H](c2ccccc2-c2ccccc2F)[C@H](CO)N1C(=O)Cc1ccccc1`, which active concentration is on record?
Its active concentration is > 10 µM (inactive).

With `CN1C(=O)c2cc(NS(C)(=O)=O)ccc2OC[C@H]2O[C@@H](CC(=O)NC3CCCCC3)CC[C@H]21` as the compound, how does the active concentration read?
The active concentration was > 10 µM (inactive).

With `CCN1CC(=O)N2[C@H](CO)[C@@H](c3ccc(Br)cc3)[C@H]2C1` as the compound, how does the active concentration read?
Its active concentration is > 10 µM (inactive).

`CN1C[C@H]2[C@@H](c3ccccc31)[C@H](CO)N2Cc1ccccc1Cl` was tested. Which active concentration did it give?
The active concentration was > 10 µM (inactive).

With `COc1ccccc1S(=O)(=O)N1CC[C@@H]2[C@H]1c1cc(-c3ccc(C#N)cc3)ccc1N[C@@H]2CO` as the compound, how does the active concentration read?
The active concentration was > 10 µM (inactive).

For `Cc1ccc(CN2CC(=O)N3[C@H](C2)[C@H](c2ccc(-c4ccccc4F)cc2)[C@@H]3CO)cc1`, which active concentration is on record?
Its active concentration is > 10 µM (inactive).

Which active concentration does the source give for `COc1ccc(C#Cc2ccc3c(c2)[C@H]2[C@H](CCN2C(=O)CN2CCOCC2)[C@H](CO)N3C)cc1` here?
The active concentration was > 10 µM (inactive).

Which active concentration does the source give for `N#C[C@@H]1[C@H](c2ccccc2C2=CCCCC2)[C@H](CO)N1C(=O)c1cccc(F)c1` here?
Its active concentration is > 10 µM (inactive).

How did the active concentration turn out when `C/C=C/c1ccc([C@H]2[C@@H](CO)N(C(=O)CN(C)C)C23CN(C(=O)C2CCC2)C3)cc1` was run?
Its active concentration is > 10 µM (inactive).

Which active concentration does the source give for `O=C(C[C@@H]1CC[C@H]2[C@@H](COC[C@@H](O)CN2C(=O)c2ccc3c(c2)OCO3)O1)NC1CCC1` here?
The active concentration was > 10 µM (inactive).

`O=C(C[C@H]1CC[C@H]2[C@@H](COC[C@H](O)CN2C(=O)Cc2ccccc2)O1)NC1CCCC1` was tested. Which active concentration did it give?
The active concentration was > 10 µM (inactive).

`O=C(c1ccc2c(c1)OCO2)N1C[C@@H]2[C@H](c3ccccc31)[C@H](CO)N2C(=O)CC1CC1` was tested. Which active concentration did it give?
Its active concentration is > 10 µM (inactive).

Which active concentration does the source give for `N#C[C@@H]1[C@H](c2ccccc2-c2ccccc2)[C@@H](CO)N1C(=O)Cc1ccncc1` here?
Its active concentration is > 10 µM (inactive).

How did the active concentration turn out when `CCNC(=O)Nc1ccc2c(c1)C(=O)N(C)[C@@H]1CC[C@@H](CC(=O)N[C@H](C)c3ccccc3)O[C@H]1CO2` was run?
The active concentration was > 10 µM (inactive).

How did the active concentration turn out when `C/C=C/c1ccc([C@H]2[C@@H](CO)N3C(=O)CN(Cc4ccc(F)cc4)C[C@@H]23)cc1` was run?
The active concentration was > 10 µM (inactive).

For `CN1C(=O)c2cc(NC(=O)c3cccc(F)c3)ccc2OC[C@@H]2O[C@H](CC(=O)NCC3CCCCC3)CC[C@@H]21`, which active concentration is on record?
The active concentration was > 10 µM (inactive).

With `C/C=C/c1ccc([C@@H]2[C@H](CO)N3C(=O)CN(Cc4ccc(F)cc4)C[C@@H]23)cc1` as the compound, how does the active concentration read?
The active concentration was > 10 µM (inactive).

For `CN1c2ccc(Br)cc2[C@H]2[C@H](CCN2C(=O)Nc2ccccc2F)[C@H]1CO`, which active concentration is on record?
The active concentration was > 10 µM (inactive).

With `COCC#Cc1ccc([C@@H]2[C@H]3CN(C(=O)Nc4ccccc4F)CC(=O)N3[C@H]2CO)cc1` as the compound, how does the active concentration read?
Its active concentration is > 10 µM (inactive).
